Measured values reported in ChEMBL document CHEMBL3774368, “1,2,4-Triazolyl octahydropyrrolo[2,3-b]pyrroles: A new series of potent and selective dopamine D3 receptor antagonists” (Bioorg Med Chem, 2016).
≈ marks a conversion by molar mass, not a printed value. Calls of active or inactive are those of the source. No cut-off for these calls is given here.

How the values were obtained:
Cytochrome P450 3A4 [1] = target: T1, Cytochrome P450 3A4 (Homo sapiens, UniProt P08684); assay: Inhibition of recombinant human CYP3A4 expressed in baculosomes preincubated for 10 mins followed by cofactor addition measured every minute for 10 mins using diethoxyflourescein as substrate by CYPEX assay
[2] = target: Voltage-gated inwardly rectifying potassium channel KCNH2 (Homo sapiens, UniProt Q12809); assay: Inhibition of human ERG tail current expressed in HEK293 cells after 5 mins by patch clamp assay
D(2) dopamine receptor [3] = target: T2, D(2) dopamine receptor (Homo sapiens, UniProt P14416); assay: Antagonist activity at human dopamine D2L receptor expressed in CHO cells assessed as inhibition of dopamine-mediated Ca+2 stimulation pretreated for 10 mins followed by addition of dopamine by fluo-4 AM dye-based FLIPR assay; format: cell-based
Cytochrome P450 2D6 = Cytochrome P450 2D6 (Homo sapiens, UniProt P10635); assay: Inhibition of recombinant human CYP2D6 expressed in baculosomes preincubated for 10 mins followed by cofactor addition measured every minute for 10 mins using 4-methylaminomethyl-7-methoxycoumarin as substrate by CYPEX assay
[4] = Fraction absorbed in portal vein cannulated Sprague-Dawley rat model; conditions: in vivo
[5] = target: Muscarinic acetylcholine receptor M3 (Homo sapiens, UniProt P20309); assay: Antagonist activity at recombinant human muscarinic M3 receptor expressed in CHO-K1 cells assessed as inhibition of acetylcholine induced calcium mobilization preincubated for 10 mins followed by acetylcholine addition measured after 1 hr by fluo-4 AM dye-based FLIPR assay; format: functional, cell-based
D(2) dopamine receptor [6] = target: T2, D(2) dopamine receptor; assay: Displacement of [3H]-spiperone from human dopamine D2 receptor expressed in CHO-K1 cell membranes after 120 mins by liquid scintillation counter method
Cytochrome P450 3A4 [7] = target: T1, Cytochrome P450 3A4; assay: Inhibition of recombinant human CYP3A4 expressed in baculosomes preincubated for 10 mins followed by cofactor addition measured every minute for 10 mins using 7-benzyloxyquinoline as substrate by CYPEX assay
[8] = target: T3, Muscarinic acetylcholine receptor M1 (Homo sapiens, UniProt P11229); assay: Antagonist activity at recombinant human muscarinic M1 receptor expressed in CHO-K1 cells assessed as inhibition of acetylcholine induced calcium mobilization preincubated for 10 mins followed by acetylcholine addition measured after 1 hr by fluo-4 AM dye-based FLIPR assay; format: functional, cell-based
T3 sequence (P11229 whole entry): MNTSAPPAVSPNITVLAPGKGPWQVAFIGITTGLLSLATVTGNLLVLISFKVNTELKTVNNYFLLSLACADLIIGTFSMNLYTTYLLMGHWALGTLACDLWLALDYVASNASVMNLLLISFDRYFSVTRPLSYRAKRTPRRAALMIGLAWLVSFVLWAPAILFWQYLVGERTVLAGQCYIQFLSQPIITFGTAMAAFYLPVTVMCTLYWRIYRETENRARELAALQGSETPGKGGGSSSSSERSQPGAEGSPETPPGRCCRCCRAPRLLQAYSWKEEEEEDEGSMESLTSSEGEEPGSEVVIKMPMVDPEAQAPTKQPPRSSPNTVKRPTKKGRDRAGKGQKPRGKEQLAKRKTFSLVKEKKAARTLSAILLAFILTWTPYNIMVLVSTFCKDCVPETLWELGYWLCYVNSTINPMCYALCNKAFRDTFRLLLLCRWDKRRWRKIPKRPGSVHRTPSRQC

Cytochrome P450 2C9 = Cytochrome P450 2C9 (Homo sapiens, UniProt P11712); assay: Inhibition of recombinant human CYP2C9 expressed in baculosomes preincubated for 10 mins followed by cofactor addition measured every minute for 10 mins using 7-methoxy-4-trifluoromethylcoumarin-3-acetic acid as substrate by CYPEX assay
[9] = Volume of distribution at steady state in portal vein cannulated Sprague-Dawley rat model; conditions: in vivo
[10] = Clearance in portal vein cannulated Sprague-Dawley rat blood; conditions: whole blood
Cytochrome P450 1A2 = target: T4, Cytochrome P450 1A2 (Homo sapiens, UniProt P05177); assay: Inhibition of recombinant human CYP1A2 expressed in baculosomes preincubated for 10 mins followed by cofactor addition measured every minute for 10 mins using ethoxyresorufin as substrate by CYPEX assay
T4 sequence (P05177 whole entry): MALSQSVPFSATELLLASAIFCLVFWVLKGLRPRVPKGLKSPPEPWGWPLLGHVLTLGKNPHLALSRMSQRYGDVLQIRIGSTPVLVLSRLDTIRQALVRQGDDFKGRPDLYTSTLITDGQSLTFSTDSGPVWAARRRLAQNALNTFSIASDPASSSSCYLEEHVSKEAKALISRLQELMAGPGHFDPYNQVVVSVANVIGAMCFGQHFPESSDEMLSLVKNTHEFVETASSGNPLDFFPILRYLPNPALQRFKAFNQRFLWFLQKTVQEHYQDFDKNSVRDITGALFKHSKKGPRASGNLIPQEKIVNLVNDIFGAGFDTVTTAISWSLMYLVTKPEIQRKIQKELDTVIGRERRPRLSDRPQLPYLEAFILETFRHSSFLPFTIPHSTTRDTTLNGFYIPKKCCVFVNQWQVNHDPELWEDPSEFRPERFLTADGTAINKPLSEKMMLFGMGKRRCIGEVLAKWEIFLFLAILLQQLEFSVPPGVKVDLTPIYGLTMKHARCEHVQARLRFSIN

in vitro [11] = conditions: human, liver microsomes, CLH
in vitro [12] = conditions: rat, liver microsomes, CLH
[13] = Half life in portal vein cannulated Sprague-Dawley rat model; conditions: in vivo
Cytochrome P450 2C19 = Cytochrome P450 2C19 (Homo sapiens, UniProt P33261); assay: Inhibition of recombinant human CYP2C19 expressed in baculosomes preincubated for 10 mins followed by cofactor addition measured every minute for 10 mins using 3-butyryl-7-methoxycoumarin as substrate by CYPEX assay
in vivo [14] = conditions: Sprague-Dawley, rat
Description: Hepatic extraction ratio in portal vein cannulated Sprague-Dawley rat model

[15] = Efflux ratio of apparent permeability across basolateral to apical side in human Caco2 cells; format: ADME, cell-based; conditions: Caco-2
[16] = Fraction unbound in Sprague-Dawley rat blood
[17] = Apparent permeability across apical to basolateral side in human Caco2 cells; format: ADME, cell-based; conditions: Caco-2
D(3) dopamine receptor [18] = target: T5, D(3) dopamine receptor (Homo sapiens, UniProt P35462); assay: Antagonist activity at human dopamine D3 receptor expressed in CHO-K1 cell membranes after 90 mins by [35S]GTP-gamma-S binding assay in presence of 3 nM quinelorane
[19] = Fraction unbound in Sprague-Dawley rat brain
in vivo [20] = conditions: Sprague-Dawley, rat, po
Description: Oral bioavailability in portal vein cannulated Sprague-Dawley rat model

D(3) dopamine receptor [21] = target: T5, D(3) dopamine receptor; assay: Displacement of [3H]-spiperone from human dopamine D3 receptor expressed in CHO-K1 cell membranes after 90 mins by liquid scintillation counter method
[22] = Solubility of compound; format: physicochemical
[23] = Permeability across apical to basolateral side in human Caco2 cells; conditions: for Papp A→B: Caco-2, permeability
D(4) dopamine receptor = target: T6, D(4) dopamine receptor (Homo sapiens, UniProt P21917); assay: (§1) Binding affinity to dopamine D4 receptor (unknown origin)
T6 sequence (P21917 whole entry): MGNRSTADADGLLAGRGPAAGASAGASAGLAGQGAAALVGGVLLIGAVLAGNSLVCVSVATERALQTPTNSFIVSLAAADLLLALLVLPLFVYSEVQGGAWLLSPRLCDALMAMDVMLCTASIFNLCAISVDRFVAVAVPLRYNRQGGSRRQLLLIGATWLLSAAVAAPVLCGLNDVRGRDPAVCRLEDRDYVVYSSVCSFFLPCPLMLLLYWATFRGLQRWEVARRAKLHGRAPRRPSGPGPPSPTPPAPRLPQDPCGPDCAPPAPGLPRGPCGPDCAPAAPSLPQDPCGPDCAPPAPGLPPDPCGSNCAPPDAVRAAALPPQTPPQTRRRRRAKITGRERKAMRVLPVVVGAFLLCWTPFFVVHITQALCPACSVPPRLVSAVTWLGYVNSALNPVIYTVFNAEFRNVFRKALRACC

in vitro [24] = conditions: human, Caco-2
Description: Efflux ratio of permeability across basolateral to apical side in human Caco2 cells

Liver microsome [25] = conditions: human, microsomes, 0.5 µM
Liver microsome [26] = conditions: rat, microsomes, 0.5 µM
[27] = target: T7, D(4) dopamine receptor (Homo sapiens) (UniProt P21917); assay: as §1
T7 sequence (whole entry): T6 sequence (P21917 whole entry)

[28] = target: D(1A) dopamine receptor (Homo sapiens) (UniProt P21728); assay: Binding affinity to dopamine D1 receptor (unknown origin)
Sequence of D(1A) dopamine receptor (Homo sapiens) (P21728 whole entry): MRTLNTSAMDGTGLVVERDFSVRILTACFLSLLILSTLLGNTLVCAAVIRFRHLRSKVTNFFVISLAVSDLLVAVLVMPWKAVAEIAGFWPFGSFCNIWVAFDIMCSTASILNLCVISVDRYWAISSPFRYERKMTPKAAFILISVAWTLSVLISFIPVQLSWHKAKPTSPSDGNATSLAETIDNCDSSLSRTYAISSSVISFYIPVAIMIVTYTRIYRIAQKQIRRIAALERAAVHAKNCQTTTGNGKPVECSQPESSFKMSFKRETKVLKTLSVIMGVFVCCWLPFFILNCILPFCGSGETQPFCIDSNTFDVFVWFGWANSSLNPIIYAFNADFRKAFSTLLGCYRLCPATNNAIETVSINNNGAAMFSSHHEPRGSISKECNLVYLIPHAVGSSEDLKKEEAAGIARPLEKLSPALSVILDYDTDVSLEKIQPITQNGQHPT

Sequence of Muscarinic acetylcholine receptor M3 (P20309 whole entry): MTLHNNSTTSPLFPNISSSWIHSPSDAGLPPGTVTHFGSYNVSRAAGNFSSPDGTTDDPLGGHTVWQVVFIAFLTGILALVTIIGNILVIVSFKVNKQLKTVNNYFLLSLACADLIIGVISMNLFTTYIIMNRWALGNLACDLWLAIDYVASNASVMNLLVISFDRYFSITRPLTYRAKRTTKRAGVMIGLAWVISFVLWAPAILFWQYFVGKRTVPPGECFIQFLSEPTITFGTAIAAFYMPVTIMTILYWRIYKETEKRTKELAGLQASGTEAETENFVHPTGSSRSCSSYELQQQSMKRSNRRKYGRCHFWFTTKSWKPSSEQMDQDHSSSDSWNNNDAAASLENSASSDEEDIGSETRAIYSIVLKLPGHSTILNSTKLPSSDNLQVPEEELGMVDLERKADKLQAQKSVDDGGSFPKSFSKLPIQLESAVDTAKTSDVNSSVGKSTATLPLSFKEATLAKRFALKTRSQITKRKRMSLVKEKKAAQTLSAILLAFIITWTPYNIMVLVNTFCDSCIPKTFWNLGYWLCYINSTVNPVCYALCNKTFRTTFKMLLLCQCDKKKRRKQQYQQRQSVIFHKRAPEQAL
Sequence of Voltage-gated inwardly rectifying potassium channel KCNH2 (Q12809 whole entry): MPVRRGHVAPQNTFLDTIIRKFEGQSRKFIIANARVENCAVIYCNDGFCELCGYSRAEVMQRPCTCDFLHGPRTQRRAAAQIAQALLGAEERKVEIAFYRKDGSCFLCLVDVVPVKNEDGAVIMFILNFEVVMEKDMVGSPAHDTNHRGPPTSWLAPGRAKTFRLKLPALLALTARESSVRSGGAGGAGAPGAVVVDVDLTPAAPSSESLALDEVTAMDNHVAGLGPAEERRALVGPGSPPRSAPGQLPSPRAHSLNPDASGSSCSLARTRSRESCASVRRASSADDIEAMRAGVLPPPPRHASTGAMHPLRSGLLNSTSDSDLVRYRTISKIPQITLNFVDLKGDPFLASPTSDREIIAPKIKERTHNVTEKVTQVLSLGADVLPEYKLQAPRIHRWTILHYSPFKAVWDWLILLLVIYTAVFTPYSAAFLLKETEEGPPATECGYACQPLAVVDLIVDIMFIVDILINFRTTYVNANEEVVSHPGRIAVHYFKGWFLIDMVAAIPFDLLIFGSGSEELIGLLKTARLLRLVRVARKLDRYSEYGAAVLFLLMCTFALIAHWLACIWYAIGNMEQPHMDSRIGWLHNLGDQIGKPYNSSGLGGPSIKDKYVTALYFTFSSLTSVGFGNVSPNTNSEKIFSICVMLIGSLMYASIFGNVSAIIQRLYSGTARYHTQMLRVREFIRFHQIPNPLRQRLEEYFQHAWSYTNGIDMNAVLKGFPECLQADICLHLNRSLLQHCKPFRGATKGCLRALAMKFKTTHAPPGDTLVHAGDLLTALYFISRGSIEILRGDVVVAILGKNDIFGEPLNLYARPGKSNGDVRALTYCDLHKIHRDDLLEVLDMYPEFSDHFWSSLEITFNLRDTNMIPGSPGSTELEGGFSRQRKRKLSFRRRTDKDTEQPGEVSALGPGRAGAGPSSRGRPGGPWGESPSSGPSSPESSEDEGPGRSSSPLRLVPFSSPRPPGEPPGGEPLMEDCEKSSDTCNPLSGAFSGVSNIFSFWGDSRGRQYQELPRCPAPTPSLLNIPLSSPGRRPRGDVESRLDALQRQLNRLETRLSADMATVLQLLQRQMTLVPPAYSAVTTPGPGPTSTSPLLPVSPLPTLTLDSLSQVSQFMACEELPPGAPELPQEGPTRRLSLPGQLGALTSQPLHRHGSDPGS
Sequence of Cytochrome P450 2D6 (P10635 whole entry): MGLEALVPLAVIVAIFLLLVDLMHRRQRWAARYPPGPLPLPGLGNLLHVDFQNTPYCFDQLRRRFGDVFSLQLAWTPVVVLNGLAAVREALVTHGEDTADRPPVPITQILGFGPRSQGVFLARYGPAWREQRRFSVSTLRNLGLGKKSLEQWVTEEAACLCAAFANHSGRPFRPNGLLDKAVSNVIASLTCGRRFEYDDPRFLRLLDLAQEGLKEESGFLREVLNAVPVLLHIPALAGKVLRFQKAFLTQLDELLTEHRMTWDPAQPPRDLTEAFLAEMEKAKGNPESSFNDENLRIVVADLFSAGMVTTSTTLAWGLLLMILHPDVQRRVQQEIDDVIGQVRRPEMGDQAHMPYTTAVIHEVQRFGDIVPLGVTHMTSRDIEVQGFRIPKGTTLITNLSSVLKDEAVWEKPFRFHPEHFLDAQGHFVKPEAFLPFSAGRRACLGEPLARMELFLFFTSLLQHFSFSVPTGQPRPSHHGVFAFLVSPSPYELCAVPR
T5 sequence (P35462 whole entry): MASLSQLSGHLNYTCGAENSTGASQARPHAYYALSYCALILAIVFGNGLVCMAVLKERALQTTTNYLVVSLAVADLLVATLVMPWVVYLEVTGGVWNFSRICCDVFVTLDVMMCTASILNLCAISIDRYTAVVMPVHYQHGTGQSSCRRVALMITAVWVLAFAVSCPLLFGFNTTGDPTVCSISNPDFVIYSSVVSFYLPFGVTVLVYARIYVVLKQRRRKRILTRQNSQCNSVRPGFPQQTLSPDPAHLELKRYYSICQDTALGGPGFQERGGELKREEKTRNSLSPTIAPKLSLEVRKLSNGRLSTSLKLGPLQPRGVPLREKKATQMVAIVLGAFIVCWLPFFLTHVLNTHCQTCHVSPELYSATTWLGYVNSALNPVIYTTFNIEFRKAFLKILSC
T1 sequence (P08684 whole entry): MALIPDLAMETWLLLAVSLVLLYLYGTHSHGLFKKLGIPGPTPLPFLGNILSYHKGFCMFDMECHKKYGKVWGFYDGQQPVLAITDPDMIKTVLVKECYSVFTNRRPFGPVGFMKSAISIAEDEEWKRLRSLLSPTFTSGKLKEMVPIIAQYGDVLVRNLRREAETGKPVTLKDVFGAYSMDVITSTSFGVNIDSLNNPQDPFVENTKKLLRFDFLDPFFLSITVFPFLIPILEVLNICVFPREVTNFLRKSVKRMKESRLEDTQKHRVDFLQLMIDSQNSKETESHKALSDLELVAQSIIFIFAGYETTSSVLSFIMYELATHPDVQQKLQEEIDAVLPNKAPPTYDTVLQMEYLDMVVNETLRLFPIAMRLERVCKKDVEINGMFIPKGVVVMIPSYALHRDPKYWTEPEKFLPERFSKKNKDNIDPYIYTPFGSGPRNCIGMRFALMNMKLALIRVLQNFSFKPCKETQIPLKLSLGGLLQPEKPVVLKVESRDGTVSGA
T2 sequence (P14416 whole entry): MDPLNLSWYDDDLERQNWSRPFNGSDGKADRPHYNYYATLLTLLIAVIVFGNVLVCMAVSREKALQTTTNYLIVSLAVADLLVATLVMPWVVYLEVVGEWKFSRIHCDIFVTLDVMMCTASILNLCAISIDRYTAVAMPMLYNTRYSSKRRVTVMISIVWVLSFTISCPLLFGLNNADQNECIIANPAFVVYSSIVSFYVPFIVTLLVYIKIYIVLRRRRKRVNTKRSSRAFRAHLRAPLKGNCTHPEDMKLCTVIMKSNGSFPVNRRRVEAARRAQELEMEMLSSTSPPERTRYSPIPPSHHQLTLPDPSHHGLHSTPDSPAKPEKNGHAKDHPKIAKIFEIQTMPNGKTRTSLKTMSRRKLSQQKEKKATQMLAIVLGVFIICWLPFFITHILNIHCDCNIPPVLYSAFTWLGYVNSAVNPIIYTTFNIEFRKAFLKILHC
Sequence of Cytochrome P450 2C9 (P11712 whole entry): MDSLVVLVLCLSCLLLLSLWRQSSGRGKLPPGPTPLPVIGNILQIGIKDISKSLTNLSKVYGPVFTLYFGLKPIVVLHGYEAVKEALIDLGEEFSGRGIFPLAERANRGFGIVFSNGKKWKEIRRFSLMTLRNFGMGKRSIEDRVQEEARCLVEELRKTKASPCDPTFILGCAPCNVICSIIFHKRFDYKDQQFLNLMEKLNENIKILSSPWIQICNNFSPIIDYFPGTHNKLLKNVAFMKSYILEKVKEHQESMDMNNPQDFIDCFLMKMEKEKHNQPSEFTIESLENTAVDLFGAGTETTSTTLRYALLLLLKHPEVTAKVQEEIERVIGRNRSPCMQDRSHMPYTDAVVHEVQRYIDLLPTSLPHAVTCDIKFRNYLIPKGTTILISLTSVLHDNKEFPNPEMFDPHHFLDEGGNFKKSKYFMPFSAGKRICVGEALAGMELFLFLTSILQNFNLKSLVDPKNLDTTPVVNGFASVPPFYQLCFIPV
Sequence of Cytochrome P450 2C19 (P33261 whole entry): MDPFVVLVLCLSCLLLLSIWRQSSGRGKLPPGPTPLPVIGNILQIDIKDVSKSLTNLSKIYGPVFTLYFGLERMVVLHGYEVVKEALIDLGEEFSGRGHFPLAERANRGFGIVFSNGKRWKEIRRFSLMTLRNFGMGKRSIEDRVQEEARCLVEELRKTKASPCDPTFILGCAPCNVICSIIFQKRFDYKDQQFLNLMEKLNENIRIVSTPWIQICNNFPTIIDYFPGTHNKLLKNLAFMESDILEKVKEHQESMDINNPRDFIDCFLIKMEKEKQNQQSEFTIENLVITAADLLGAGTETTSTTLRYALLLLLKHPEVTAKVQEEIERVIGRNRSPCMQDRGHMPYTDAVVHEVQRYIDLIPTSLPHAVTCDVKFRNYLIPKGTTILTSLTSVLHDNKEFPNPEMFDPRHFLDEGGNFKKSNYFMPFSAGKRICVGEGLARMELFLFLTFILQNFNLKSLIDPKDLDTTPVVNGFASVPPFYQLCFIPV

Compound	IC50 (Cytochrome P450 3A4 [1]) [nM]	IC50 [2] [nM]	IC50 (Cytochrome P450 2D6) [nM]	Fa [4] [%]	Ki [5] [nM]	Ki (D(2) dopamine receptor [6]) [nM]	IC50 (Cytochrome P450 3A4 [7]) [nM]	Ki [8] [nM]	IC50 (Cytochrome P450 2C9) [nM]	Vd [9] [L/kg]	clearance [10] [mL/min/kg]	IC50 (Cytochrome P450 1A2) [nM]	microsomal CLint at 0.5 µM (in vitro [11]) [µL/min/mg]	microsomal CLint at 0.5 µM (in vitro [12]) [µL/min/mg]	half-life [13] [min]	IC50 (Cytochrome P450 2C19) [nM]	fraction unbound [16]	fraction unbound [19]	bioavailability (in vivo [20]) [%]	Ki (D(3) dopamine receptor [21]) [nM]	other results
Cc1ncoc1-c1nnc(SCCCN2CC3CCN(c4ccccc4)C3C2)n1C (stereo in doubt; 6b)	> 1000	1260	> 1000	50	1260	251	> 1000	1000	> 1000	2.2	80.1	> 1000	88	364	18	> 1000	–	–	–	–	Ki (D(2) dopamine receptor [3]): 158 nM
Cc1ncoc1-c1nnc(SCCCN2CC3CCN(c4ccc(C(F)(F)F)cc4F)C3C2)n1C (stereo in doubt; 8b)	> 3000	398	> 3000	79	245	63.1	> 3000	110	> 3000	1.1	20	> 3000	177	43	90	> 3000	0.0025	0.014	73	1.26	hepatic extraction ratio (in vivo [14]): 0.07; efflux ratio [15]: 0.55; Ki (D(2) dopamine receptor [3]): 50.1 nM; Papp A→B [17]: 5.5 ×10⁻⁶ cm/s; Ki (D(3) dopamine receptor [18]): 1.58 nM
Cn1c(SCCCN2CC3CCN(c4ccc(C(F)(F)F)cc4)C3C2)nnc1-c1cc[nH]c(=O)c1 (stereo in doubt; 55b)	> 20000	2510	> 20000	5	1100	631	> 20000	1740	> 20000	4.2	37	> 20000	33	47	126	> 20000	0.044	0.022	3	7.94	hepatic extraction ratio (in vivo [14]): 0.4; solubility [22]: 200 µg/mL (≈ 396 µM); Papp A→B [23]: 4.2 ×10⁻⁶ cm/s; Ki (D(4) dopamine receptor): 15800 nM; efflux ratio (in vitro [24]): 3.8
Cn1c(SCCCN2CC3CCN(c4ccc(C(F)(F)F)cc4)C3C2)nnc1-c1ccc(=O)n(C)c1 (stereo in doubt; 57b) [listing 1 of 2 here]	–	–	–	–	479	–	–	380	–	–	–	–	–	–	–	–	–	–	–	5.01	CLH (Liver microsome [25]): 111 µL/min; Papp A→B [23]: 5.3 ×10⁻⁶ cm/s; CLH (Liver microsome [26]): 30 µL/min
Cn1c(SCCCN2CC3CCN(c4ccc(C(F)(F)F)cc4)C3C2)nnc1-c1ccc(=O)n(C)c1 (stereo in doubt; 57b) [listing 2 of 2 here]	–	–	–	–	–	–	–	–	–	–	–	–	–	–	–	–	–	–	–	–	Activity [27]: inactive; Activity [28]: inactive
Cn1c(SCCCN2CC3CCN(c4ccccc4)C3C2)nnc1C1CCOCC1 (stereo in doubt; 62a) [listing 1 of 2 here]	> 17000	–	> 17000	5.5	1450	–	> 17000	1020	> 17000	0.44	20	> 17000	26	272	18	> 17000	0.31	0.33	< 1	6.31	solubility [22]: > 2000 µg/mL; permeability ([23]; Caco-2): permeable
Cn1c(SCCCN2CC3CCN(c4ccccc4)C3C2)nnc1C1CCOCC1 (stereo in doubt; 62a) [listing 2 of 2 here]	–	–	–	–	–	–	–	–	–	–	–	–	–	–	–	–	–	–	–	–	Activity [27]: inactive; Activity [28]: inactive
